Values of other authors as cited in PMC9120017, “Inhibition mechanism of the chloride channel TMEM16A by the pore blocker 1PBC” (Nature Communications, 2022).

Tested on: TMEM16A
Conditions: cited from earlier work

## O=C(O)c1c2ccccc2cc2ccccc12 [9-AC, 9-anthracene carboxylate]
  Inhibition of TMEM16A: inhibit TMEM16A

## O=S(=O)(O)c1cc(N=C=S)ccc1C=Cc1ccc(N=C=S)cc1S(=O)(=O)O [DIDS, 4,4′-Diisothiocyanato-2,2′-stilbenedisulfonic acid]
  Inhibition of TMEM16A: inhibit TMEM16A

## O=C(O)c1cccnc1Nc1cccc(C(F)(F)F)c1 [NFA]
  Selectivity for anion channels of the TMEM16 family over the scramblase TMEM16F: selective for anion channels of the TMEM16 family over the scramblase TMEM16F

## O=C(O)c1cc([N+](=O)[O-])ccc1NCCCc1ccccc1 [NPPB]
  Selectivity for anion channels of the TMEM16 family over the scramblase TMEM16F: selective for anion channels of the TMEM16 family over the scramblase TMEM16F

## O=C(Nc1ccc([N+](=O)[O-])cc1Cl)c1cc(Cl)ccc1O [niclosamide]
  Inhibition of TMEM16A: inhibit TMEM16A
